In patent publication US12589101B2, “Cyclodextrin protein drug conjugates” (Regeneron Pharmaceuticals, Inc., priority 2017, dated 2026) one finds EC50, Maximal activation and solubility data, which are given here for 2 molecules.

As usually defined, the EC50 is the midpoint of the concentration-response curve. The low end stands for greater potency, the high end for weaker potency. A word on the solubility: it is the concentration that dissolves in the medium under given conditions.

One data set relates to T1, LXR.
T1 construct: other: THP1/LXR-Luc/Her2 cells, 48-hour incubation, relative to free payload 1d; other: THP1/LXR-Luc/Her2 cells, 48-hour incubation; other: THP1/Her2/LXR-Luc cells; other: differentiated THP1/LXR-Luc cells, 48 hours; other: THP1/LXR-Luc cells, PMA
In words: THP1/LXR-Luc/Her2 bioassay (LXR activation, luciferase). It is filed as cell-based. The settings on record: THP1/LXR-Luc/Her2 cells, 48-hour incubation. As for the experimental part: To test the comparability of ADCs with and without CDs containing LXR agonists anti-HER2 Ab ADC with and without CD were tested for their ability to activate LXR in a THP1/LXR-Luc/Her2 bioassay. In the assay, either THP1/LXR-Luc cells or THP1/LXR-Luc/Her2 cells were seeded onto white 96 well plates at 30,000 cells/well in media containing RPMI supplemented with 10% FBS and pencillin/streptomycinin (complete media). Subsequently 3-fold serial dilutions of antibody drug conjugates, unconjugated antibodies, or free payloads were added to the cells at final concentration ranging from 100 nM to 0.01 nM. After a 48-hour incubation, luciferase activity was determined after the addition of One-Glo™ reagent (Promega, E6130) to each well of cells. Relative light units (RLUs) were measured on a Victor luminometer (PerkinElmer) and the EC50 values were determined using a four-parameter logistic equation over a 10-point dose response curve (GraphPad Prism).

Data set [1] is described as follows: Solubility of linker-payloads (LC-MS standard curve, saturated solution). Format: physicochemical. The settings on record: aqueous with cosolvent or surfactant or cyclodextrin, thermodynamic from solid, in 10% DMSO/H2O; read-out: Solubility in other solvents.

≈ marks a conversion by molar mass, not a printed value.

`C[C@]1(C(=O)NC(=O)[C@@]2(C)CCC[C@]3(C)c4cc(O)ccc4CC[C@@H]23)CCC[C@]2(C)c3cc(N)ccc3CC[C@@H]12` [Example 1d, (1S,4aS,10aR)-N-[(1S,4aS,10aR)-6-Amino-1,4a-dimethyl-1,2,3,4,4a,9,10,10a-octahydrophenanthrene-1-carbonyl]-6-hydroxy-1,4a-dimethyl-1,2,3,4,4a,9,10,10a-octahydrophenanthrene-1-carboxamide]: it took 2.8 nM to reach a half-maximal effect with LXR (EC50). Also, the Maximal activation entry in the data set on LXR (relative to free payload 1d) was “Full activation”.
Take `CCCC1O[C@@H]2C[C@H]3[C@@H]4CCC5=CC(=O)C=C[C@]5(C)[C@H]4[C@@H](O)C[C@]3(C)[C@]2(C(=O)COc2ccc(NC(=O)[C@H](C)NC(=O)[C@@H](NC(=O)[C@@H](CCCCNC(=O)COC3CCCCCc4c3nnn4CC3OC4OC5C(CO)OC(OC6C(CO)OC(OC7C(CO)OC(OC8C(CO)OC(OC9C(CO)OC(OC3C(O)C4O)C(O)C9O)C(O)C8O)C(O)C7O)C(O)C6O)C(O)C5O)NC(=O)CCOCCOCCOCCOCCNC(=O)CCC(=O)N3Cc4ccccc4C#Cc4ccccc43)C(C)C)cc2)O1` (stereo partly drawn) [Ex46]: the solubility at 10 min in data set [1] came out at 100 µg/mL (≈ 39.7 µM).
